Reference: the NIST ThermoML archive (doi:10.1021/je050050p)

Conditions: Liquid, Vibrating tube method

CN(C)C=O [dimethylformamide]
Conditions	mass density [kg/m3]
313.12 K, 1008 kPa	930.41
313.12 K, 2010 kPa	931.09
313.12 K, 3012 kPa	931.73
313.12 K, 4008 kPa	932.38
313.12 K, 5004 kPa	933.04
313.12 K, 6002 kPa	933.68
313.12 K, 7002 kPa	934.32
313.12 K, 8004 kPa	934.97
313.12 K, 9000 kPa	935.62
313.12 K, 10004 kPa	936.27
313.12 K, 11004 kPa	936.89
313.12 K, 12004 kPa	937.51
313.12 K, 13005 kPa	938.14
313.12 K, 14007 kPa	938.78
313.12 K, 15002 kPa	939.37
313.12 K, 16012 kPa	940
313.12 K, 17009 kPa	940.59
313.12 K, 18015 kPa	941.19
313.12 K, 19010 kPa	941.79
313.12 K, 20013 kPa	942.42
313.12 K, 21009 kPa	942.99
313.12 K, 22011 kPa	943.58
313.12 K, 23019 kPa	944.17
313.12 K, 24013 kPa	944.75
313.12 K, 25011 kPa	945.35
323.06 K, 1014 kPa	920.89
323.06 K, 2007 kPa	921.59
323.06 K, 3026 kPa	922.27
323.06 K, 4006 kPa	922.95
323.06 K, 5016 kPa	923.62
323.06 K, 6010 kPa	924.3
323.06 K, 7006 kPa	924.99
323.06 K, 8010 kPa	925.64
323.06 K, 9012 kPa	926.32
323.06 K, 10014 kPa	926.99
323.06 K, 11011 kPa	927.65
323.06 K, 12013 kPa	928.31
323.06 K, 13007 kPa	928.97
323.06 K, 14011 kPa	929.62
323.06 K, 15008 kPa	930.29
323.06 K, 16014 kPa	930.92
323.06 K, 17004 kPa	931.54
323.06 K, 18006 kPa	932.19
323.06 K, 19006 kPa	932.82
323.06 K, 20005 kPa	933.44
323.06 K, 21002 kPa	934.07
323.06 K, 22013 kPa	934.7
323.06 K, 23015 kPa	935.31
323.06 K, 24008 kPa	935.92
323.06 K, 25012 kPa	936.53
333 K, 1008 kPa	911.34
333 K, 2018 kPa	912.08
333 K, 3006 kPa	912.78
333 K, 4005 kPa	913.51
333 K, 5005 kPa	914.23
333 K, 6008 kPa	914.97
333 K, 7003 kPa	915.68
333 K, 8009 kPa	916.39
333 K, 9010 kPa	917.11
333 K, 10008 kPa	917.81
333 K, 11008 kPa	918.51
333 K, 12008 kPa	919.2
333 K, 13013 kPa	919.9
333 K, 14006 kPa	920.57
333 K, 15007 kPa	921.24
333 K, 16011 kPa	921.92
333 K, 17019 kPa	922.59
333 K, 18010 kPa	923.27
333 K, 19004 kPa	923.91
333 K, 20012 kPa	924.58
333 K, 21005 kPa	925.24
333 K, 22005 kPa	925.88
333 K, 23014 kPa	926.52
333 K, 24009 kPa	927.19
333 K, 25009 kPa	927.83
342.86 K, 1028 kPa	901.52
342.86 K, 2020 kPa	902.3
342.86 K, 3015 kPa	903.09
342.86 K, 4002 kPa	903.84
342.86 K, 5035 kPa	904.63
342.86 K, 6026 kPa	905.39
342.86 K, 7013 kPa	906.13
342.86 K, 8017 kPa	906.89
342.86 K, 9024 kPa	907.66
342.86 K, 10012 kPa	908.38
342.86 K, 11048 kPa	909.14
342.86 K, 11999 kPa	909.83
342.86 K, 13018 kPa	910.6
342.86 K, 14029 kPa	911.32
342.86 K, 15007 kPa	912.03
342.86 K, 15994 kPa	912.71
342.86 K, 17041 kPa	913.47
342.86 K, 18012 kPa	914.16
342.86 K, 19006 kPa	914.85
342.86 K, 20042 kPa	915.55
342.86 K, 21025 kPa	916.22
342.86 K, 22008 kPa	916.9
342.86 K, 23079 kPa	917.63
342.86 K, 24008 kPa	918.25
342.86 K, 25017 kPa	918.93
352.8 K, 1040 kPa	891.76
352.8 K, 2009 kPa	892.57
352.8 K, 3011 kPa	893.41
352.8 K, 4020 kPa	894.22
352.8 K, 5050 kPa	895.06
352.8 K, 6060 kPa	895.78
352.8 K, 6996 kPa	896.53
352.8 K, 8008 kPa	897.34
352.8 K, 9034 kPa	898.16
352.8 K, 10019 kPa	898.93
352.8 K, 11043 kPa	899.73
352.8 K, 11998 kPa	900.45
352.8 K, 13028 kPa	901.24
352.8 K, 14015 kPa	901.99
352.8 K, 15028 kPa	902.74
352.8 K, 16000 kPa	903.48
352.8 K, 17011 kPa	904.23
352.8 K, 17999 kPa	904.96
352.8 K, 19044 kPa	905.73
352.8 K, 20050 kPa	906.43
352.8 K, 21038 kPa	907.16
352.8 K, 21955 kPa	907.8
352.8 K, 23009 kPa	908.57
352.8 K, 23996 kPa	909.27
352.8 K, 25056 kPa	910.04
362.67 K, 1058 kPa	882.04
362.67 K, 2038 kPa	882.89
362.67 K, 3044 kPa	883.77
362.67 K, 4027 kPa	884.62
362.67 K, 5068 kPa	885.54
362.67 K, 6036 kPa	886.37
362.67 K, 7025 kPa	887.22
362.67 K, 8027 kPa	888.03
362.67 K, 9045 kPa	888.9
362.67 K, 10021 kPa	889.71
362.67 K, 11024 kPa	890.55
362.67 K, 11996 kPa	891.3
362.67 K, 13061 kPa	892.19
362.67 K, 14027 kPa	892.95
362.67 K, 15025 kPa	893.73
362.67 K, 15987 kPa	894.49
362.67 K, 17050 kPa	895.32
362.67 K, 18009 kPa	896.08
362.67 K, 19041 kPa	896.85
362.67 K, 20032 kPa	897.62
362.67 K, 21035 kPa	898.36
362.67 K, 22014 kPa	899.1
362.67 K, 23018 kPa	899.87
362.67 K, 24007 kPa	900.58
362.67 K, 25016 kPa	901.35
